Source: patent US20230285570A1, “THERAPEUTICALLY USEFUL CURE-PRO MOLECULES FOR E3 LIGASE MEDIATED DEGRADATION OF PROTEINS, AND METHODS OF MAKING AND USING THEM” (CORNELL UNIVERSITY, priority 2020, published 2023)
Entries after “also recorded” stand apart in the source; their conditions may differ.

Legend:
Type in all cases: cell-based
BRD4 [1] = biological target: T1, BRD4 (Homo sapiens, UniProt O60885); experiment: Summary of BRD4 degradation by CURE-PRO pairs, estimated from Western Blot or WES; parameters: endogenous in cells; details: for Degradation of BRD4, combination with CRBN ligand 8047: Table 1, aryl-boronic acid BRD4 ligand + 8047
Summary of the method: (§1)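 Degradation read-out from immunoblot with ECL, or WES capillary electrophoresis with HRP detection, of RIPA lysates. Cells (Namalwa, Ramos, HeLa, MCF7, HT29 or HCT116) were exposed to DMSO-solubilized compounds for 24 h; a check mark marks 30% to 70% or higher degradation.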

BRD4 [2] = biological target: T1, BRD4; experiment: CURE-PRO-mediated BRD4 degradation in MCF7 cells, Western blot; parameters: endogenous in cells; details: 1:1 with VHL ligand 8305, MCF7, 24 h, 100 nM-10 μM
Experimental: (§2) Namalwa, Ramosm HeLa, MCF7, or HT29 HCT116 cells (2.5-3×10^6) were treated for 24 hours with the indicated compounds solubilized in DMSO. The cells were washed in ice-cold PBS and were then lysed in RIPA lysis buffer (150 mM NaCl, 5 mM EDTA, 1% NP-40, 0.5% sodium deoxycholate, 0.1% SDS, 50 mM Tris, pH 8.0.) with Roche protease inhibitor complete cocktail and phosphatase inhibitors (10 mM sodium fluoride, 10 mM sodium pyrophosphate, 1 mM sodium orthovanadate and 20 mM β-glycerophosphate). The total protein concentrations were determined by Bradford Protein Assay (Pierce) and 10-20 μg of protein was loaded onto 4-15% Tris-Glycine gradient gels (Biorad). After standard gel electrophoresis, the separated proteins were transferred to PVDF membrane by wet transfer. The immunoblots were then blocked for 1 hour in 5% skim milk in TBST or 5% BSA in TBST, according to manufacturer's instructions, before an overnight incubation at 4° C. with indicated antibodies and membranes. Membranes were then incubated with the appropriate horseradish peroxidase-conjugated secondary antibodies (1:5,000 dilution) for 1 h at room temperature and the bands were visualized using the Clarity Max Western ECL Substrate (Biorad) and the ChemiDoc Imaging System (Biorad). Signal was detected with ECL Western Blotting Substrate (Pierce) and X-ray film processed with a Konica SRX-101 X-ray film processor or captured by Bio-Rad's Chemidoc Imaging system.
MCF7 cells (3×10^6) were treated for 24 h with the compounds solubilized in DMSO. Compounds were added at 100 nM-10 μM. Standardized protein samples were electrophoresed and imaged as described in the Immunoblotting section above. FIG. 69 depicts the CURE-PRO-mediated BRD4 degradation for the BRD-E9 monomer and VHL ligands 8305 combined in a 1:1 ratio, and FIG. 70 depicts the CURE-PRO-mediated BRD4 degradation for the BRD-E20 monomer and 8305.
MCF7 cells (3×10^6) were treated for 24 h with the compounds solubilized in DMSO. Compounds were added at 1 μM-10 μM. Standardized protein samples were electrophoresed and imaged as described in the Immunoblotting section above. FIG. 71 depicts the CURE-PRO-mediated BRD4 degradation for the BRD-E50 monomer and VHL ligands 8305 and 8304 combined in a 1:1 ratio.

BRD4 [3] = biological target: T1, BRD4; experiment: CURE-PRO-mediated BRD4 degradation in HeLa cells, Western blot; parameters: endogenous in cells; host or cells: HeLa; details: 24 h
Summary of the method: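 HeLa cells (2.5×10^6) treated 24 h with DMSO-solubilized compounds, degrader pairs combined 1:1, at 1 nM-1 μM, 1-10 μM, 10 μM or 10 and 100 μM each depending on series. RIPA lysates (10-20 μg protein) run on SDS-PAGE and immunoblotted for BRD4 with ECL detection.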

caspase 3/7 = experiment: Caspase-Glo 3/7 assay, Namalwa cells; details: 1:1 with CRBN ligand 8047, Namalwa, 24 h
Experimental: Caspase-glo® assay (Promega) was conducted following the manufacturer's recommendations. Cells were seeded at a density of 5000 cells/well in a white 96 well plates (Corning, #3917) in a total volume of 100 μl with respective monomers, combinations of BRD ligands together with E3 ligase ligands or vehicle control treatment. After a 24 h incubation, 100 μl of the […] substrate was added per well and luminescence was read on a Spectramax M5 (Molecular Devices).
Namalwa cells (5×10^4) were treated for 24 hours with the compounds solubilized in DMSO. FIG. 57 is a bar graph depiction of fold increase of apoptosis assessed via caspase 3/7 activity using the Caspase-Glo assay (Promega) described above.
Molm-13 (FIG. 76A) or Namalwa (FIG. 76B) cells (5×10^4) were treated for 24 hours with the compounds solubilized in DMSO in white 96 well plates (10 nM-10 μM solubilized in DMSO). FIG. 76 is a bar graph depiction of fold increase of apoptosis assessed via caspase 3/7 activity using the Caspase-Glo assay (Promega) described above.

BRD4 [4] = biological target: T1, BRD4; experiment: CURE-PRO-mediated BRD4 degradation in HeLa cells, WES capillary electrophoresis (ProteinSimple); parameters: endogenous in cells; host or cells: HeLa
Experimental: All cell lines were purchased from ATCC or DSMZ and grown at 37° C. with 5% CO2. Human HeLa cells were cultured in complete growth medium (Dulbecco's modified Eagle's medium (DMEM) supplemented with 10% FBS); MCF7 cells were cultured in complete growth medium (Dulbecco's modified Eagle's medium (DMEM) supplemented with 10% FBS and 0.01 mg/ml human recombinant insulin (Sigma Aldrich); Namalwa and Ramos cells were cultured in complete growth medium (RPMI 1640 medium supplemented with 10% FBS); HCT116 and HT29 cells were cultured in complete growth medium (McCoy's 5a Medium supplemented with 10% FBS). For cellular degradation of BRD4 studies cells were seeded in a 12-well plate at 70-80% confluency, allowed to attach overnight, and incubated with the indicated compounds for the indicated time. When indicated, a 15-minute pretreatment with 10 μM pomalidomide, 10 μM VHL298, 10 μM Nutlin3a, 1 μM MG-132 or 1 μM Carfilzomib was performed before the addition of CURE-PROs. For washout studies, after CURE-PRO treatment, media was aspirated and incubated with complete medium for the indicated time before lysis.
(§3) WES Simple analysis was performed on WES system (ProteinSimple-Biotechne) according to the manufacturer's instructions. Total protein concentrations of cell lysates were determined by the Pierce BCA kit (Thermo Fisher). 3 μL of 0.3 μg/μL of the protein lysate was loaded onto a 12- to 230-kDa WES assay plate (ProteinSimple) where 300 nL sample was withdrawn through a capillary, subjected to electrophoretic separation of proteins by size, and followed by the simultaneous, HRP-based detection of proteins using the Anti-Rabbit Detection Module (Proteinsimple: #DM-001). The electropherograms were checked then the automatic peak detection was manually corrected if it was required.
HeLa cells (2.5×10^6) were treated for 4-24 hours with the compounds solubilized in DMSO. After 4 hours, indicated points were washed and cells were left in full growth media. Compounds were added at 10 μM each. Standardized protein samples were electrophoresed and imaged as described in the WES ProteinSimple section above. FIGS. 44 and 45 depict the time-dependence of CURE-PRO-mediated BRD4 degradation with the BRD-E52 ligand (FIG. 44) and BRD-E72 ligand (FIG. 45), both JQ1 derivatives comprising of boronic acid linkers, and the CRBN binding ligands (8046, 8047, and 8066), pomalidomide derivatives comprising diol linkers.
HeLa cells (2.5×10^6) were treated for 24 hours with the compounds solubilized in DMSO. Compounds were added at 100 nM-10 μM each. Standardized protein samples were electrophoresed and imaged as described in the WES ProteinSimple section above. FIG. 46 depicts the concentration-dependence of CURE-PRO-mediated BRD4 degradation and the requirement for monomer dimerization.

c-MYC [5] = biological target: T2, c-MYC (Homo sapiens, UniProt P01106); experiment: Summary of C-MYC degradation by CURE-PRO pairs, estimated from Western Blot or WES; parameters: endogenous in cells; host or cells: HT29; details: for Degradation of C-MYC, combination with MDM2 ligand 8310: Table 11, aromatic 1,2-diol MYC ligand + 8310; for Degradation of C-MYC, combination with MDM2 ligand 8312: Table 11, aromatic 1,2-diol MYC ligand + 8312
Summary of the method: as §1

c-MYC [6] = biological target: T2, c-MYC; experiment: CURE-PRO-mediated c-MYC degradation in HCT1116 cells, Western blot or WES; parameters: HT29 cells (2.5×10^6) were treated for 24 h with the compounds solubilized in DMSO; endogenous in cells; host or cells: HT29; details: 1:1 with MDM2 ligand 8310, HCT1116, 24 h, 10 nM-10 μM each
c-MYC [7] = biological target: T2, c-MYC; experiment: as above; parameters: endogenous in cells; host or cells: HT29; details: 1:1 with MDM2 ligand 8312, HCT1116, 24 h, 10 nM-10 μM each
Experimental: as §2, §3
HCT1116 cells (2.5×10^6) were treated for 24 h with the compounds solubilized in DMSO. Compounds were added at 10 nM-10 μM each. Standardized protein samples were electrophoresed and imaged as described in the immunoblotting or WES (Proteinsimple) sections above. c-MYC monomers, MYC-N20 (FIG. 100, a 10074-G5 derivative comprising diol linkers), and MYC-N10 (FIG. 101), MYC-N6 (FIG. 102), and MYC-N9 (FIG. 103) (10058-F4 derivatives comprising diol linkers), and MDM2 ligands, 8310 and 8312 (Nutlin 3a derivatives comprising boronic acid linkers) were combined in a 1:1 ratio.
HCT1116 cells (2.5×10^6) were treated for 24 h with the compounds solubilized in DMSO. Compounds were added at 1 μM-10 μM each.

T2 sequence (P01106 whole entry): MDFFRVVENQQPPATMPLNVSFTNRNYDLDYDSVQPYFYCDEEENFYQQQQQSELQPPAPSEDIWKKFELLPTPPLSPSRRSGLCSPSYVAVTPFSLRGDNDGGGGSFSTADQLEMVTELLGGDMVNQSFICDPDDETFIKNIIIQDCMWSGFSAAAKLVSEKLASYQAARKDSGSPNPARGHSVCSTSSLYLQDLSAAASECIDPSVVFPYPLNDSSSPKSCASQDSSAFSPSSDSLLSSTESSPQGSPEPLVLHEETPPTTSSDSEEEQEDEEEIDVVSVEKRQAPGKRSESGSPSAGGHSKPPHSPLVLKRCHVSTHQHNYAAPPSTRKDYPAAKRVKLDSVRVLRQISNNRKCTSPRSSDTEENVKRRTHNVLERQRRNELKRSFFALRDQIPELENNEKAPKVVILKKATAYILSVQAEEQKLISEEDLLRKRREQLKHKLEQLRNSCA

SMILES | Degradation of BRD4, combination with CRBN ligand 8047 (BRD4 [1]) | Degradation of C-MYC, combination with MDM2 ligand 8310 (c-MYC [5]) | c-MYC degradation (c-MYC [6]) | Degradation of C-MYC, combination with MDM2 ligand 8312 (c-MYC [5]) | c-MYC degradation (c-MYC [7]) | also measured
COc1ccc2c(c1)C(c1ccc(Cl)cc1)=N[C@@H](CC(=O)NCc1ccc(B(O)O)cc1)c1nnc(C)n1-2 [BRD-E9, (4-((2-((4S)-6-(4-chlorophenyl)-8-methoxy-1-methyl-4H-benzo[f][1,2,4]triazolo[4,3-a][1,4]diazepin-4-yl)acetamido)methyl)phenyl)boronic acid] | √ (A black check mark indicates efficacy of 30% to 70% or higher protein degradation) |  |  |  |  | Degradation of BRD4, combination with VHL ligand 8305 (BRD4 [1]; Table 3, aryl-boronic acid BRD4 ligand + 8305): √ (A black check mark indicates efficacy of 30% to 70% or higher protein degradation); BRD4 degradation (BRD4 [2]): there is degradation of BRD4
CCNC(=O)C[C@@H]1N=C(c2ccc(Sc3cccc(B(O)O)c3)cc2)c2cc(OC)ccc2-n2c(C)nnc21 [BRD-E52, (3-((4-((4S)-4-(2-(ethylamino)-2-oxoethyl)-8-methoxy-1-methyl-4H-benzo[f][1,2,4]triazolo[4,3-a][1,4]diazepin-6-yl)phenyl)thio)phenyl)boronic acid] | √ (A black check mark indicates efficacy of 30% to 70% or higher protein degradation) |  |  |  |  | BRD4 degradation after pomalidomide preincubation (BRD4 [3]; 1:1 with 8047, 10 μM, pomalidomide preincubated 15 min at equimolar concentration): inhibition of CURE-PRO-mediated BRD4 degradation; BRD4 degradation (BRD4 [3]; BRD ligand with pomalidomide (no 8047), HeLa, 10 μM): failed to induce BRD4 degradation; BRD4 degradation (BRD4 [3]; co-treated 1:1 with CRBN ligand 8047, HeLa, 10 μM each): causes degradation of BRD4; also recorded: CURE-PRO-mediated degradation of BRD4; Degradation of BRD4, combination with CRBN ligand 8066 (BRD4 [1]; Table 1, aryl-boronic acid BRD4 ligand + 8066): √ (A black check mark indicates efficacy of 30% to 70% or higher protein degradation); caspase 3/7 activation (caspase 3/7): demonstrates activation of caspase 3/7; also recorded: marked caspase activation; sustained BRD4 degradation after drugs are washed out (BRD4 [4]; co-dosed with 8047, 10 μM each, washed after 4 h): up to 8 h; BRD4 degradation, time course (BRD4 [4]; co-dosed with CRBN ligand 8047, HeLa, 10 μM each, 4-24 h): marked BRD4 degradation after 4 h; concentration-dependent BRD4 degradation (BRD4 [4]; co-dosed with CRBN ligand 8047, HeLa, 24 h, 100 nM-10 μM each): marked BRD4 degradation; concentration from which BRD4 protein expression decreases (BRD4 [4]; with CRBN ligand 8047, HeLa, 24 h, 100 nM-10 μM each): ≥ 300 nM
CCc1ccc(/C=C2\SC(=O)N(CCCc3cccc(O)c3O)C2=O)cc1 [MYC-N6] |  | √ (A black check mark indicates efficacy of 30% to 70% or higher protein degradation) | caused degradation of c-MYC protein; also recorded: Degradation was noted |  |  | 
CCc1ccc(/C=C2\SC(=O)N(CCOCCNC(=O)c3cccc(O)c3O)C2=O)cc1 [MYC-N10] |  |  | caused degradation of c-MYC at higher concentrations; also recorded: Degradation was noted | √ (A black check mark indicates efficacy of 30% to 70% or higher protein degradation) | caused degradation of c-MYC at higher concentrations; also recorded: Degradation was noted | 
O=C(NCCNC(=O)c1cccc(O)c1O)c1ccc(Nc2ccc([N+](=O)[O-])c3nonc23)cc1 [MYC-N20] |  | √ (A black check mark indicates efficacy of 30% to 70% or higher protein degradation) | caused degradation of c-MYC protein | √ (A black check mark indicates efficacy of 30% to 70% or higher protein degradation) | negligible effects | 
